Laboratory results reported in ChEMBL document CHEMBL4613226, “Drug Metabolism by the Mitochondrial Amidoxime Reducing Component (mARC): Rapid Assay and Identification of New Substrates” (J Med Chem, 2020).

Legend:
Assay type in all cases: ADME
[1] = biological target: T1, Mitochondrial amidoxime-reducing component 1 (Homo sapiens, UniProt Q5VT66); test: Substrate activity at human mARC1 expressed in Escherichia coli assessed as turnover rates at 3 mM pre-incubated for 3 mins followed by NADH addition and measured after 15 mins by UV-Visible spectroscopy based NADH assay; conditions: 0.25 h, 3000 µM
T1 sequence (Q5VT66 whole entry): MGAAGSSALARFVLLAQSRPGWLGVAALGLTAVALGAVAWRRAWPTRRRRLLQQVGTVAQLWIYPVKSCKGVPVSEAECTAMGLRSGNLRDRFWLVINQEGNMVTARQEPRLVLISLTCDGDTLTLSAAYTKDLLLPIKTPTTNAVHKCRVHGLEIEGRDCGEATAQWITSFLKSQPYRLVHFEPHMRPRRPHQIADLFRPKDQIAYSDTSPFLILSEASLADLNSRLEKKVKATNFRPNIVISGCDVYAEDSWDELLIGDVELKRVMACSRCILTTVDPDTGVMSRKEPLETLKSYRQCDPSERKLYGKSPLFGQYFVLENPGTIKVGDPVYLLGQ

[2] = biological target: T2, Mitochondrial amidoxime reducing component 2 (Homo sapiens, UniProt Q969Z3); test: Substrate activity at human mARC2 expressed in Escherichia coli assessed as turnover rates at 3 mM pre-incubated for 3 mins followed by NADH addition and measured after 15 mins by UV-Visible spectroscopy based NADH assay; conditions: 0.25 h, 3000 µM
T2 sequence (Q969Z3 whole entry): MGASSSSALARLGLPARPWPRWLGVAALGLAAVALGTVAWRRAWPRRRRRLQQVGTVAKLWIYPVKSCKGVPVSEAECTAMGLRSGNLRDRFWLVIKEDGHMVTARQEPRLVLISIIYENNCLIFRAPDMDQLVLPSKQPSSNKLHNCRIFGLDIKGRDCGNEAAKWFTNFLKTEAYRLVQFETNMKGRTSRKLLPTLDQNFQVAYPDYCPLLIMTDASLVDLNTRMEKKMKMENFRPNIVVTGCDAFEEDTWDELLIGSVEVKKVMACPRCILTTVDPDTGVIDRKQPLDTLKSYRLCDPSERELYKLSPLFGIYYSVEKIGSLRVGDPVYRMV

[3] = biological target: T1, Mitochondrial amidoxime-reducing component 1; test: Substrate activity at human mARC1 expressed in Escherichia coli assessed as turnover rates at 3 mM pre-incubated for 3 mins followed by NADH addition and measured after 15 mins by LC-MS analysis based assay; conditions: 0.25 h, 3000 µM
[4] = biological target: T2, Mitochondrial amidoxime reducing component 2; test: Substrate activity at human mARC2 expressed in Escherichia coli assessed as turnover rates at 3 mM pre-incubated for 3 mins followed by NADH addition and measured after 15 mins by LC-MS analysis based assay; conditions: 0.25 h, 3000 µM
[5] = biological target: T1, Mitochondrial amidoxime-reducing component 1; test: Substrate activity at human mARC1 expressed in Escherichia coli assessed as turnover rates at 1 mM pre-incubated for 3 mins followed by NADH addition and measured after 15 mins by UV-Visible spectroscopy based NADH assay; conditions: 0.25 h, 1000 µM
[6] = biological target: T2, Mitochondrial amidoxime reducing component 2; test: Substrate activity at human mARC2 expressed in Escherichia coli assessed as turnover rates at 1 mM pre-incubated for 3 mins followed by NADH addition and measured after 15 mins by UV-Visible spectroscopy based NADH assay; conditions: 0.25 h, 1000 µM
[7] = biological target: T1, Mitochondrial amidoxime-reducing component 1; test: Substrate activity at human mARC1 expressed in Escherichia coli assessed as turnover rates at 1 mM pre-incubated for 3 mins followed by NADH addition and measured after 15 mins by LC-MS analysis based assay; conditions: 0.25 h, 1000 µM
[8] = biological target: T2, Mitochondrial amidoxime reducing component 2; test: Substrate activity at human mARC2 expressed in Escherichia coli assessed as turnover rates at 1 mM pre-incubated for 3 mins followed by NADH addition and measured after 15 mins by LC-MS analysis based assay; conditions: 0.25 h, 1000 µM
[9] = biological target: T1, Mitochondrial amidoxime-reducing component 1; test: Substrate activity at human mARC1 expressed in Escherichia coli assessed as turnover rates at 200 uM pre-incubated for 3 mins followed by NADH addition and measured after 15 mins by UV-Visible spectroscopy based NADH assay; conditions: 0.25 h
[10] = biological target: T2, Mitochondrial amidoxime reducing component 2; test: Substrate activity at human mARC2 expressed in Escherichia coli assessed as turnover rates at 200 uM pre-incubated for 3 mins followed by NADH addition and measured after 15 mins by UV-Visible spectroscopy based NADH assay; conditions: 0.25 h
[11] = biological target: T1, Mitochondrial amidoxime-reducing component 1; test: Substrate activity at human mARC1 expressed in Escherichia coli assessed as turnover rates at 200 uM pre-incubated for 3 mins followed by NADH addition and measured after 15 mins by LC-MS analysis based assay; conditions: 0.25 h
[12] = biological target: T2, Mitochondrial amidoxime reducing component 2; test: Substrate activity at human mARC2 expressed in Escherichia coli assessed as turnover rates at 200 uM pre-incubated for 3 mins followed by NADH addition and measured after 15 mins by LC-MS analysis based assay; conditions: 0.25 h
[13] = biological target: T1, Mitochondrial amidoxime-reducing component 1; test: Substrate activity at human mARC1 expressed in Escherichia coli assessed as turnover rates at 500 uM pre-incubated for 3 mins followed by NADH addition and measured after 15 mins by UV-Visible spectroscopy based NADH assay; conditions: 0.25 h
[14] = biological target: T2, Mitochondrial amidoxime reducing component 2; test: Substrate activity at human mARC2 expressed in Escherichia coli assessed as turnover rates at 500 uM pre-incubated for 3 mins followed by NADH addition and measured after 15 mins by UV-Visible spectroscopy based NADH assay; conditions: 0.25 h
[15] = biological target: T1, Mitochondrial amidoxime-reducing component 1; test: Substrate activity at human mARC1 expressed in Escherichia coli assessed as turnover rates at 500 uM pre-incubated for 3 mins followed by NADH addition and measured after 15 mins by LC-MS analysis based assay; conditions: 0.25 h
[16] = biological target: T2, Mitochondrial amidoxime reducing component 2; test: Substrate activity at human mARC2 expressed in Escherichia coli assessed as turnover rates at 500 uM pre-incubated for 3 mins followed by NADH addition and measured after 15 mins by LC-MS analysis based assay; conditions: 0.25 h

For CN(CCCC(=O)c1cccnc1)N=O, the Activity ([1]; BLD = below limit of detection) was “Bld”, the Activity ([2]; BLD = below limit of detection) was “Bld” and the Activity ([3]; BLD = below limit of detection) was “Bld”. The Activity ([4]; BLD = below limit of detection) was “Bld”.
OC[C@H]1O[C@@H](n2cnc3c(NO)ncnc32)[C@H](O)[C@@H]1O showed an Activity [5] of 845.7 nmol/mg/min, an Activity [6] of 271.6 nmol/mg/min and an Activity [7] of 954.5 nmol/mg/min. It also gave an Activity [8] of 291 nmol/mg/min.
With NC(=O)c1ccc[n+]([O-])c1 the Activity [1] was 209.9 nmol/mg/min, the Activity ([2]; BLD = below limit of detection) was “Bld” and the Activity [3] was 239.3 nmol/mg/min. For the same compound, the Activity ([4]; BLD = below limit of detection) was “Bld”.
For C=C1C(=O)O[C@@H]2CC[N+]3([O-])CC=C(COC(=O)[C@](C)(O)[C@H](C)[C@H]1C)[C@H]23 (stereo not given in full), the Activity [5] was 12.7 nmol/mg/min, the Activity ([6]; BLD = below limit of detection) was “Bld” and the Activity [7] was 17.6 nmol/mg/min. For the same compound, the Activity ([8]; BLD = below limit of detection) was “Bld”.
With C[N+](C)([O-])CCC=C1c2ccccc2CCc2ccccc21 [AMITRIPTYLINOXIDE] the Activity [1] was 9.5 nmol/mg/min, the Activity ([2]; BLD = below limit of detection) was “Bld” and the Activity [3] was 3.1 nmol/mg/min. The Activity ([4]; BLD = below limit of detection) was “Bld”.
In the case of NC(=NO)c1ccccc1 [BENZAMIDOXIME], the Activity [1] is reported as 499.8 nmol/mg/min, the Activity [2] is reported as 394.3 nmol/mg/min and the Activity [3] is reported as 549.6 nmol/mg/min. It also gave an Activity [4] of 373.9 nmol/mg/min.
For NS(=O)(=O)NCCNc1nonc1C(=NO)Nc1ccc(F)c(Br)c1 [EPACADOSTAT], the Activity [9] was 10.4 nmol/mg/min, the Activity [10] was 24.3 nmol/mg/min and the Activity [11] was 4.1 nmol/mg/min. It also gave an Activity [12] of 17.9 nmol/mg/min.
Work on O=CN(O)CCCP(=O)([O-])O.[Na+] [FOSMIDOMYCIN SODIUM] yielded an Activity [1] of 7.2 nmol/mg/min and an Activity [2] of 27.8 nmol/mg/min.
N=C(NO)N/N=C/c1c(Cl)cccc1Cl [GUANOXABENZ] showed an Activity [13] of 951.2 nmol/mg/min, an Activity [14] of 947.1 nmol/mg/min and an Activity [15] of 988 nmol/mg/min. The Activity [16] was 967.5 nmol/mg/min.
NC(=O)NO [HYDROXYUREA] gave an Activity [1] of 471.5 nmol/mg/min and an Activity [2] of 34.4 nmol/mg/min.
Cc1oncc1C(=O)Nc1ccc(C(F)(F)F)cc1 [LEFLUNOMIDE] was tested, and the Activity ([13]; BLD = below limit of detection) was “Bld”, the Activity ([14]; BLD = below limit of detection) was “Bld” and the Activity ([15]; BLD = below limit of detection) was “Bld”. For the same compound, the Activity ([16]; BLD = below limit of detection) was “Bld”.
O=c1nc(NO)ccn1[C@@H]1O[C@H](CO)[C@@H](O)[C@H]1O [N-HYDROXYCYTIDINE] was tested, and the Activity [1] was 354.7 nmol/mg/min, the Activity [2] was 142.1 nmol/mg/min and the Activity [3] was 354.8 nmol/mg/min. For the same compound, the Activity [4] was 184.2 nmol/mg/min.
Cc1cn([C@H]2C[C@H](N=[N+]=[N-])[C@@H](CO)O2)c(=O)[nH]c1=O [ZIDOVUDINE] was tested, and the Activity ([1]; BLD = below limit of detection) was “Bld”, the Activity ([2]; BLD = below limit of detection) was “Bld” and the Activity ([3]; BLD = below limit of detection) was “Bld”. The Activity ([4]; BLD = below limit of detection) was “Bld”.
CC(c1cc2ccccc2s1)N(O)C(N)=O (stereo not given) [ZILEUTON] was tested, and the Activity [5] was 6.1 nmol/mg/min, the Activity [6] was 8.3 nmol/mg/min and the Activity [7] was 2.3 nmol/mg/min. The Activity [8] was 0.9 nmol/mg/min.
For O=C1Cc2cc(CCN3CCN(c4nsc5ccccc45)CC3)c(Cl)cc2N1 [ZIPRASIDONE], the Activity ([9]; BLD = below limit of detection) was “Bld”, the Activity ([10]; BLD = below limit of detection) was “Bld” and the Activity ([11]; BLD = below limit of detection) was “Bld”. For the same compound, the Activity ([12]; BLD = below limit of detection) was “Bld”.
With NS(=O)(=O)Cc1noc2ccccc12 [ZONISAMIDE] the Activity ([5]; BLD = below limit of detection) was “Bld”, the Activity ([6]; BLD = below limit of detection) was “Bld” and the Activity ([7]; BLD = below limit of detection) was “Bld”. For the same compound, the Activity ([8]; BLD = below limit of detection) was “Bld”.
